Measurements taken from patent US20090246293A1 (priority 2008, published 2009).
Like-named read-outs stand apart in the source and are kept apart here.

What was measured:
[1] = test system: Plasmopara viticola (PLASVI); type: in vivo; settings: for Reduction in percent disease: aldehyde derivative 100 ppm with mancozeb, PLASVI; for % disease at 500 ppm of substance alone PLASVI: substance alone 500 ppm, untreated check 95
[2] = test system: Pseudoperonospora cubensis (PSPECU); settings: in vivo
[3] = test system: Pseudoperonospora cubensis (PSPECU); experiment: Droplet application on cucumber leaf, growth chamber (Examples 5a-d); type: in vivo; settings: for % disease at 100 ppm of substance alone: substance alone 100 ppm; for % disease at 500 ppm of substance alone: substance alone 500 ppm, untreated check 91%; for % disease at 1000 ppm of substance alone: substance alone 1000 ppm
Description: Examples 5a through 5d were conducted in growth chambers on cucumber plants. Cucumbers (Cucumis sativus cv Bush Pickle Hybrid #901261) were grown from seed in 5 cm by 5 cm pots containing MetroMix™ growth medium (Scotts, Marysville, Ohio) and maintained in a glasshouse with supplementary light sources to provide a 14 hour photoperiod at 24-29° C. until the plants were in the 2-3 true leaf stage of growth and the oldest leaf was fully expanded.
For examples 5a through 5d, described below, samples of mancozeb formulated as Dithane DG NT were dissolved in water to form a ½×dilution series. Mancozeb rates were 400, 200, 100 and 50 ppm. Samples of various aldehydes, amino acids, carboxylic acids, amines and alcohols were dissolved in acetone and then mixed with aqueous solutions of mancozeb. Attractant rates in the dilute solutions were 100, 200, 500 or 1000 ppm, depending on the experiment.
Mixtures of attractant or attractant derivative plus mancozeb or mancozeb alone were applied to cucumber as a row of 5 or 7.5 ul droplets using a multi-channel pipetting device. Five droplets spaced 1 cm apart were placed along the mid-rib of the expanded cucumber leaf with the first droplet being positioned at least 1-cm from the leaf apex. Each treatment was replicated three or four times, depending on the experiment. Two to three hours after applying the treatments when droplets had dried, plants were inoculated with a suspension of sporangia of a Pseudoperonospora cubensis (PSPECU) and incubated as described in the methods for sprayed tests. When symptoms were well developed in untreated check plants, the experiment was assessed visually using a template 2 cm wide and 7 cm long with the long axis centered on the mid-rib of the treated leaf.
Reduction in percent disease was calculated by subtracting percent disease on plants receiving a mixture of mancozeb plus the specified test substance from percent disease on plants receiving mancozeb alone. The results for examples 5a-5d are shown below in Tables 7-10; the reduction in percent disease was indicated as follows: […]

[4] = test system: Phytophthora infestans (PHYTIN); type: in vivo; settings: for % disease at 500 ppm of substance alone PHYTIN: substance alone 500 ppm, untreated check 95
[5] = substance 100 ppm with mancozeb 200 ppm vs mancozeb alone, Table 10
[6] = substance 500 ppm with mancozeb 25 ppm (Dithane DGNT), foliar spray, inoculated 2 to 3 hours after treatment
[7] = substance 100 ppm with mancozeb 200 ppm vs mancozeb alone, Table 9
[8] = substance 500 ppm with mancozeb 200 ppm vs mancozeb alone, Table 8
[9] = substance 500 ppm with mancozeb 6.25 ppm (Dithane DGNT), foliar spray, inoculated 2 to 3 hours after treatment
[10] = aldehyde derivative 100 ppm with mancozeb, Table 17
[11] = substance 200 ppm with mancozeb 50 ppm vs mancozeb alone, cucumber
[12] = substance 1000 ppm with mancozeb 50 ppm vs mancozeb alone, cucumber
[13] = fungicide with Formulation I at 100 ppm, Table 19

SMILES: CCCCCCCCCCCCCCCCCC(=O)NN=CCC(C)C [Compound L]
- Reduction in percent disease ([1]; Table 15): xxx (36-50% reduction in percent disease)
- Reduction in percent disease [2]: xx (key: x: 0-20% reduction in percent disease; xx: 21-35% reduction in percent disease; xxx: 36-50% reduction in percent disease; xxxx: >50% reduction in percent disease)

SMILES: CC(C)C/C=N/NC(=O)c1ccccc1 [Compound I]
- Reduction in percent disease [2]: xx (key: x: 0-20% reduction in percent disease; xx: 21-35% reduction in percent disease; xxx: 36-50% reduction in percent disease; xxxx: >50% reduction in percent disease)

SMILES: CC(=O)N/N=C/CC(C)C [Compound H]
- Reduction in percent disease ([1]; Table 13): xx (21-35% reduction in percent disease)
- Reduction in percent disease [2]: xx (key: x: 0-20% reduction in percent disease; xx: 21-35% reduction in percent disease; xxx: 36-50% reduction in percent disease; xxxx: >50% reduction in percent disease)

SMILES: CC(=O)CC(C)C [4-methyl-2-pentanone]
- Reduction in % Disease [3, 5]: x (0-20% reduction in percent disease)
- % disease at 100 ppm of substance alone ([3]; untreated check 100%, Table 10): 93%

SMILES: O=CCC1CC1 [Cyclopropylacetaldehyde]
- Reduction in percent disease PHYTIN [4, 6]: x (0-20% reduction in percent disease)
- % disease at 500 ppm of substance alone PHYTIN [4]: 95%
- Reduction in % Disease [3, 7]: x (0-20% reduction in percent disease)
- Reduction in % Disease [3, 8]: x (0-20% reduction in percent disease)
- % disease at 100 ppm of substance alone ([3]; untreated check 92%, Table 9): 85%
- % disease at 500 ppm of substance alone [3]: 90%
- Reduction in percent disease PLASVI [1, 9]: xx (21-35% reduction in percent disease)
- % disease at 500 ppm of substance alone PLASVI [1]: 95%

SMILES: CC(C)C/C=N/N(C)c1ccccc1 [Compound AA]
- Reduction in percent disease PHYTIN [4, 10]: x (0-20% reduction in percent disease)

SMILES: CC(C)C=O [Isobutyraldehyde]
- Reduction in % Disease [3, 7]: x (0-20% reduction in percent disease)
- % disease at 100 ppm of substance alone ([3]; untreated check 92%, Table 9): 97%

SMILES: CCC(C)C=O (centres unmarked) [2-methylbutyraldehyde]
- Reduction in percent disease PHYTIN [4, 6]: x (0-20% reduction in percent disease)
- % disease at 500 ppm of substance alone PHYTIN [4]: 95%
- Reduction in % Disease [3, 7]: x (0-20% reduction in percent disease)
- Reduction in % Disease [3, 8]: x (0-20% reduction in percent disease)
- % disease at 100 ppm of substance alone ([3]; untreated check 92%, Table 9): 98%
- % disease at 500 ppm of substance alone [3]: 74%
- Reduction in percent disease PLASVI [1, 9]: x (0-20% reduction in percent disease)
- % disease at 500 ppm of substance alone PLASVI [1]: 95%

SMILES: CCCCC=O [Valeraldehyde]
- Reduction in percent disease PHYTIN [4, 6]: x (0-20% reduction in percent disease)
- % disease at 500 ppm of substance alone PHYTIN [4]: 95%
- Reduction in % Disease [3, 7]: x (0-20% reduction in percent disease)
- Reduction in % Disease [3, 8]: x (0-20% reduction in percent disease)
- % disease at 100 ppm of substance alone ([3]; untreated check 92%, Table 9): 93%
- % disease at 500 ppm of substance alone [3]: 94%
- Reduction in percent disease PLASVI [1, 9]: x (0-20% reduction in percent disease)
- % disease at 500 ppm of substance alone PLASVI [1]: 95%

SMILES: CC(C)CCC(=O)O [Isocaproic acid]
- Reduction in percent disease PHYTIN [4, 6]: xxx (36-50% reduction in percent disease)
- % disease at 500 ppm of substance alone PHYTIN [4]: 95%
- Reduction in % Disease [3, 11]: xxx (36-50% reduction in percent disease)
- Reduction in % Disease [3, 8]: x (0-20% reduction in percent disease)
- Reduction in % Disease [3, 12]: xxx (36-50% reduction in percent disease)
- % disease at 500 ppm of substance alone [3]: 88%
- % disease at 1000 ppm of substance alone ([3]; untreated check 100%): 100%
- Reduction in percent disease PLASVI [1, 9]: xxx (36-50% reduction in percent disease)
- % disease at 500 ppm of substance alone PLASVI [1]: 93%

SMILES: CC(C)C/C=N/NC(=O)N/N=C/CC(C)C [Compound F]
- Reduction in percent disease ([1]; Table 13): x (0-20% reduction in percent disease)
- Reduction in percent disease [2]: xx (key: x: 0-20% reduction in percent disease; xx: 21-35% reduction in percent disease; xxx: 36-50% reduction in percent disease; xxxx: >50% reduction in percent disease)

SMILES: CC(C)C/C=N/N(Cc1ccccc1)Cc1ccccc1 [Compound W]
- Reduction in percent disease PHYTIN [4, 10]: xx (21-35% reduction in percent disease)

SMILES: CC(C)CC(=O)O [Isovaleric acid]
- Reduction in % Disease [3, 11]: xx (21-35% reduction in percent disease)
- Reduction in % Disease [3, 12]: xx (21-35% reduction in percent disease)
- % disease at 1000 ppm of substance alone ([3]; untreated check 100%): 100%

SMILES: C=CCON=CCC(C)C [Compound X]
- Reduction in percent disease PHYTIN [4, 10]: xx (21-35% reduction in percent disease)

SMILES: CCC(C=O)CC [2-ethylbutyraldehyde]
- Reduction in % Disease [3, 7]: x (0-20% reduction in percent disease)
- % disease at 100 ppm of substance alone ([3]; untreated check 92%, Table 9): 65%

SMILES: CC(C)CC=NOCc1ccccc1 [Compound Y]
- Reduction in percent disease PHYTIN [4, 10]: x (0-20% reduction in percent disease)

SMILES: CC(C)CO [Isobutanol]
- Reduction in percent disease PHYTIN [4, 6]: xxx (36-50% reduction in percent disease)
- % disease at 500 ppm of substance alone PHYTIN [4]: 95%
- Reduction in % Disease [3, 11]: x (0-20% reduction in percent disease)
- Reduction in % Disease [3, 8]: x (0-20% reduction in percent disease)
- Reduction in % Disease [3, 12]: xxxx (>50% reduction in percent disease)
- % disease at 500 ppm of substance alone [3]: 95%
- % disease at 1000 ppm of substance alone ([3]; untreated check 100%): 100%
- Reduction in percent disease PLASVI [1, 9]: xxxx (>50% reduction in percent disease)
- % disease at 500 ppm of substance alone PLASVI [1]: 78%

SMILES: CC(C)=CC=O [3-methyl-2-butenaldehyde]
- Reduction in percent disease PHYTIN [4, 6]: x (0-20% reduction in percent disease)
- % disease at 500 ppm of substance alone PHYTIN [4]: 95%
- Reduction in % Disease [3, 7]: x (0-20% reduction in percent disease)
- Reduction in % Disease [3, 8]: x (0-20% reduction in percent disease)
- % disease at 100 ppm of substance alone ([3]; untreated check 92%, Table 9): 100%
- % disease at 500 ppm of substance alone [3]: 81%
- Reduction in percent disease PLASVI [1, 9]: xxx (36-50% reduction in percent disease)
- % disease at 500 ppm of substance alone PLASVI [1]: 95%

SMILES: CC(C)C/C=N/N1CCCCC1 [Compound Z]
- Reduction in percent disease PHYTIN [4, 10]: xx (21-35% reduction in percent disease)

SMILES: CC(C)(C)CC=O [3,3-dimethylbutyraldehyde]
- Reduction in percent disease PHYTIN [4, 6]: x (0-20% reduction in percent disease)
- % disease at 500 ppm of substance alone PHYTIN [4]: 95%
- Reduction in % Disease [3, 7]: x (0-20% reduction in percent disease)
- Reduction in % Disease [3, 8]: x (0-20% reduction in percent disease)
- % disease at 100 ppm of substance alone ([3]; untreated check 92%, Table 9): 96%
- % disease at 500 ppm of substance alone [3]: 75%
- Reduction in percent disease PLASVI [1, 9]: x (0-20% reduction in percent disease)
- % disease at 500 ppm of substance alone PLASVI [1]: 87%

SMILES: CC(C)CCO [Isoamyl alcohol]
- Reduction in % Disease [3, 11]: xx (21-35% reduction in percent disease)
- Reduction in % Disease [3, 12]: x (0-20% reduction in percent disease)
- % disease at 1000 ppm of substance alone ([3]; untreated check 100%): 100%

SMILES: CC(C)CCN [Isoamyl amine]
- Reduction in % Disease [3, 11]: xxx (36-50% reduction in percent disease)
- Reduction in % Disease [3, 12]: xxx (36-50% reduction in percent disease)
- % disease at 1000 ppm of substance alone ([3]; untreated check 100%): 100%

SMILES: CON=C(C(=O)OC)c1ccccc1CON=C(C)c1cccc(C(F)(F)F)c1 [Trifloxystrobin, reference compound]
- Reduction in percent disease PHYTIN [4, 13]: x (0-20% reduction in percent disease)
- Reduction in percent disease PLASVI [1, 13]: x (0-20% reduction in percent disease)

SMILES: CCC(C)C(C)=O (centres unmarked) [3-methyl-2-pentanone]
- Reduction in % Disease [3, 5]: x (0-20% reduction in percent disease)
- % disease at 100 ppm of substance alone ([3]; untreated check 100%, Table 10): 100%

SMILES: CC(C)C/C=N/NC(=O)c1ccc(O)cc1 [Compound V]
- Reduction in percent disease PHYTIN [4, 10]: xx (21-35% reduction in percent disease)

SMILES: N[C@@H](CC(=O)O)C(=O)O [Aspartic acid]
- Reduction in % Disease [3, 11]: xx (21-35% reduction in percent disease)
- Reduction in % Disease [3, 12]: xx (21-35% reduction in percent disease)
- % disease at 1000 ppm of substance alone ([3]; untreated check 100%): 100%

SMILES: O=[N+]([O-])c1cc(C(F)(F)F)c(Cl)c([N+](=O)[O-])c1Nc1ncc(C(F)(F)F)cc1Cl [Fluazinam, reference compound]
- Reduction in percent disease PHYTIN [4, 13]: xxx (36-50% reduction in percent disease)
- Reduction in percent disease PLASVI [1, 13]: xxx (36-50% reduction in percent disease)

SMILES: N[C@@H](CCC(=O)O)C(=O)O [Glutamic acid]
- Reduction in percent disease PHYTIN [4, 6]: xx (21-35% reduction in percent disease)
- % disease at 500 ppm of substance alone PHYTIN [4]: 95%
- Reduction in % Disease [3, 11]: xx (21-35% reduction in percent disease)
- Reduction in % Disease [3, 8]: x (0-20% reduction in percent disease)
- Reduction in % Disease [3, 12]: x (0-20% reduction in percent disease)
- % disease at 500 ppm of substance alone [3]: 90%
- % disease at 1000 ppm of substance alone ([3]; untreated check 100%): 100%
- Reduction in percent disease PLASVI [1, 9]: xxx (36-50% reduction in percent disease)
- % disease at 500 ppm of substance alone PLASVI [1]: 93%
